Like-named read-outs stand apart in the source and are kept apart here.

Data on 2 molecules can be found in publication PMC8867573 (ACS Omega, 2022).

Assay [1] addresses T1, ScSLAC (small laccase, SLAC) (Streptomyces coelicolor, UniProt Q9XAL8).
T1 sequence (Q9XAL8 34-343): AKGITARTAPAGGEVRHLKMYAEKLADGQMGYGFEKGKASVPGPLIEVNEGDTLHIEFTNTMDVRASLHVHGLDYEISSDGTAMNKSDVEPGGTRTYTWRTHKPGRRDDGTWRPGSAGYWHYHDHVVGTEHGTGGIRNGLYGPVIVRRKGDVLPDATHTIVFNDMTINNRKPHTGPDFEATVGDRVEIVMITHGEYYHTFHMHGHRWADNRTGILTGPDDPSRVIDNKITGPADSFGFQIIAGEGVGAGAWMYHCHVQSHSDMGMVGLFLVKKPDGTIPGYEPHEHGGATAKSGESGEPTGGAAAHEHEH
The assay can be described thus: spectrophotometric oxidation, […] nm, Michaelis-Menten or substrate inhibition fit. As to conditions: read-out: DMP; pH 8.0, 42 °C; 0.25-15 mM substrate. Type of assay: biochemical.

The target of assay [2] is T1, ScSLAC (small laccase, SLAC). Described as above. The note with it: read-out: Pyrogallol; pH 8.5, 42 °C; 0.025-1 mM substrate.

Regarding `COc1cccc(OC)c1O` [DMP, 2,6-dimethoxyphenol], in assay [1], the Km is 1.1 ± 0.06 mM. For `Oc1cccc(O)c1O` [Pyrogallol], the Km in assay [2] came to 200 ± 60 µM.
